According to the NIST ThermoML archive (doi:10.1016/j.jct.2015.08.040):

Assays:
[1] = 100 kPa, Liquid; for speed of sound: Frequency=2 MHz, Linear variable-path acoustic interferometer; for mass density: Vibrating tube method
[2] = xn = mol fraction of the nth substance listed; details: 100 kPa, Liquid; for speed of sound: Frequency=2 MHz, Linear variable-path acoustic interferometer; for mass density: Vibrating tube method

CCCCOCCO [2-butoxyethan-1-ol]
[1]
Details | mass density [kg/m3] | speed of sound [m/s]
298.15 K | 896.46 | 1305
303.15 K | 892.22 | –
308.15 K | 887.97 | 1275
313.15 K | 883.7 | –
318.15 K | 879.42 | –

COCCO [2-methoxyethan-1-ol] + OCc1ccccc1
[2], x2 = 0
Details | mass density [kg/m3] | speed of sound [m/s]
298.15 K | 960.29 | 1341.6
303.15 K | 955.84 | –
308.15 K | 951.16 | 1302
313.15 K | 946.49 | –
318.15 K | 941.89 | –

CCOCCO [2-ethoxyethan-1-ol]
[1]
Details | mass density [kg/m3] | speed of sound [m/s]
298.15 K | 925.36 | 1301.4
303.15 K | 920.72 | –
308.15 K | 916.11 | 1274.8
313.15 K | 911.47 | –
318.15 K | 906.9 | –

OCc1ccccc1 [benzenemethanol] + CCCCOCCO
[2], x1 = 1
Details | mass density [kg/m3] | speed of sound [m/s]
298.15 K | 1041.05 | 1534.5
303.15 K | 1037.15 | –
308.15 K | 1033.32 | 1496
313.15 K | 1029.46 | –
318.15 K | 1025.59 | –

OCc1ccccc1 [benzenemethanol] + CCOCCO
[2], x1 = 1
Details | mass density [kg/m3] | speed of sound [m/s]
298.15 K | 1041.05 | 1534.5
303.15 K | 1037.15 | –
308.15 K | 1033.32 | 1496
313.15 K | 1029.46 | –
318.15 K | 1025.59 | –

OCc1ccccc1 [benzenemethanol]
[1]
Details | mass density [kg/m3] | speed of sound [m/s]
298.15 K | 1041.05 | 1534.5
303.15 K | 1037.15 | –
308.15 K | 1033.32 | 1496
313.15 K | 1029.46 | –
318.15 K | 1025.59 | –

COCCO [2-methoxyethan-1-ol]
[1]
Details | mass density [kg/m3] | speed of sound [m/s]
298.15 K | 960.29 | 1341.6
303.15 K | 955.84 | –
308.15 K | 951.16 | 1302
313.15 K | 946.49 | –
318.15 K | 941.89 | –
